Reference: patent US12202866B2, “Therapeutic nanoconjugates and uses thereof” (UNIVERSITAT AUTÒNOMA DE BARCELONA (UAB), priority 2017, dated 2025)
Marks after values point to notes of the source that are not given here.

Experiments:
[1] = tested on: CXCR4^+ HeLa human cervical carcinoma cell line; test: Internalization in CXCR4+ HeLa cells (flow cytometry, AMD3100 competition); assay type: cell-based; settings: 1 hour exposure, 1 μM
Protocol: To assess specificity for CXCR4 receptor mediated internalization, competition studies incubating CXCR4^+ HeLa cells with the CXCR4 antagonist AMD3100 (octahydrochloride hydrate, Sigma-Aldrich) were performed in a 1:10 (Protein:antagonist) molar ratio for 1 h before exposure to the nanoconjugate, as previously described for the T22-GFP-H6.
Nuclei were labeled with Hoechst 33342 (Life Technologies) and plasma membranes CellMask™ Deep Red (Life Technologies).

[2] = tested on: CXCR4^+ SW1417 CRC metastases; test: Prevention of metastasis protocol, SC+ORT CXCR4+ SW1417 CRC model; assay type: in vivo, NOD/SCID mice
Protocol: Thus, a SC+ORT model, was produced: when SC tumors reached a volume of 700 mm3, mice were sacrificed by cervical dislocation and tumours were excised, discarding the necrotic areas. Three hundred mg of viable tumour tissue was then cut into pieces and disaggregated in a mix of 0.05% trypsin (Invitrogen) and 100 mg/ml DNase (Sigma-Aldrich). The mix was pipetted 30 times, using a 10 ml pipette, and incubated for 10 minutes at 37° C. with shaking. It was then re-pipetted 30 times, using 10 ml, 3 ml and 1 ml pipettes, and re-incubated for 5 minutes at 37° C. with shaking. This re-pipetting step was then repeated. The obtained SW1417 single-cell suspension was filtered through a cell strainer and centrifuged at 1,000 g for 10 minutes before counting the cells. Then 2×10^6 cells, […] resuspended in 50 μl of media, were microinjected in the cecum of each mouse, following the method described above.
The SC+ORT metastatic CRC model developed in NOD/SCID mice was used to evaluate the capacity of the nanoconjugate for metastasis prevention.
At necropsy, the number and size of visible metastases in the organs where dissemination is expected in colorectal cancer (lymph nodes, liver, lung and peritoneum) were recorded for each mouse in all compared groups. Also the number of metastatic foci that emitted bioluminiscence (derived from the SW1417-luci CRC cells) were counted ex vivo in the target organs for metastasis, using the IVIS® 200-Spectrum (Perkin-Elmer). Samples for histopathological and immunohistochemical analyses were collected and processed. Two independent observers analyzed H&E stained samples to count the number and measure the size of all observed metastatic foci in three (metastasis prevention experiment) or six (regression of metastasis experiment) sections of each organ in each mouse. The images were taken and the measurements were performed with an Olympus microscope with the CellD Olympus software (v3.3). […] The obtained results were used to study a possible correlation between CXCR4^+ CCF and antimetastatic effect at the different sites.
In order to analyze differences between control and experimental groups of affected mice in metastatic rates at the different organs, Fisher's exact test was used. The Mann-Whitney test was used to compare number and size of metastatic foci in the affected organs among groups. All quantitative values were expressed as mean±SE and the statistical tests were performed using SPSS version 11.0 (IBM, New York, USA). Differences among groups was considered significant at a p<0.05.

[3] = Prevention protocol, 3 histology sections, mean + SE
[4] = versus free oligo-FdU mice, histology, end of experiment

T22-GFP-H6-FdU: nanoconjugate of T22-GFP-H6 protein nanoparticle covalently bound via maleimide linker to thiol-functionalized pentameric floxuridine oligonucleotide (oligo-FdU)
internalization in HeLa cells [1]: CXCR4-dependent nanoconjugate internalization | LN foci, mean foci number per mouse ([2]; Prevention protocol, 20 μg (or equimolecular) q3d x12 i.v., 3 histology sections, mean + SE): 2.0 ± 0.4 ^a | Liver foci, mean foci number per mouse [2, 3]: 0.2 ± 0.1 ^b,c | Lung foci, mean foci number per mouse [2, 3]: 1.3 ± 0.9 ^d,e | Peritoneal foci, mean foci number per mouse [2, 3]: 0.4 ± 0.3 ^f,g | reduction in the size of peritoneal foci ([2]; compared to free oligo-FdU): 2.4 fold | Metastasis Liver [%] ([2]; end of prevention experiment): [17]^a % | Metastasis Liver, affected/total mice ([2]; end of prevention experiment): 2/12 | Metastasis Lung [%] ([2]; end of prevention experiment): [17]^b,c % | Metastasis Lung, affected/total mice ([2]; end of prevention experiment): 2/12 | Metastasis Lymph nodes [%] ([2]; end of prevention experiment): [75] % | Metastasis Lymph nodes, affected/total mice ([2]; end of prevention experiment): 9/12 | Metastasis Peritoneal [%] ([2]; end of prevention experiment): [17]^d % | Metastasis Peritoneal, affected/total mice ([2]; end of prevention experiment): 2/12 | metastasis development in liver and lung by ex vivo luminescence ([2]; end of prevention experiment): blocked metastasis development | remaining CXCR4^+ CCF in liver, lung and peritoneal metastatic tissue (anti-CXCR4 IHC) ([2]; end of prevention experiment): higher reduction | prevention of LN metastases ([2]; histology, end of experiment): did not prevent | Metastasis Size, Liver ([2]; mean foci size): 8.7 μm^2 × 10^−3 | Metastasis Size, Lung ([2]; mean foci size): 15.1 μm^2 × 10^−3 | Metastasis Size, Lymph nodes ([2]; mean foci size): 79.3 μm^2 × 10^−3 | Metastasis Size, Peritoneal ([2]; mean foci size): 126.6 μm^2 × 10^−3 | Primary tumor Positive/#Mice ([2]; mice bearing a primary tumor out of total mice per group): 12/12 | Primary tumor [%] ([2]; percent of mice bearing a primary tumor): [100] % | primary tumor growth by in vivo bioluminescence emission ([2]; prevention experiment, compared to buffer-treated mice): no significant inhibition | reduction in the total number of metastases in liver or lung [2, 4]: 3.1-3.7 times | reduction in the total number of metastases in the peritoneum [2, 4]: 10.3 fold
